Assay results: patent EP0741132B1, “INDOLE DERIVATIVES” (KYOWA HAKKO KOGYO CO., LTD., priority 1994, dated 1995)

Columns and labels:
[1] = system: calvaria; test: Inhibitory effect on bone absorption (calcium liberation from PTH enhanced cultured calvaria); assay type: cell-based; conditions: newborn dd mouse calvaria culture, PTH 1 x 10^-8M, 96 hours, total calcium in the culture
Description: The calvaria was excised from a newborn dd mouse (5 to 6 days old) under sterile conditions. The calvaria was washed with a modified Dulbecco phosphate buffer physiological saline solution containing neither calcium nor magnesium (a product of Gibco Oriental), and divided into two parts along the center suture. A half of the calvaria was cultivated in a modified Dulbecco Eagle medium (1.5 ml) (a product of Gibco Oriental) containing 2.5% fetal calf serum and 15% equine serum which had been inactivated by heating at 56°C for 20 minutes. The test compound was dissolved in dimethyl sulfoxide and 10 µl of the resulting solution was added to the culture medium to give the final concentrations of 3 x 10^-6M, 1 x 10^-5M, and 3 x 10^-5M. PTH (parathyroid hormone) was dissolved in a 0.15 M saline solution (pH 3) and 3 µl of the resulting solution was added to the culture medium to give the final concentration of 1 x 10^-8M. The culturing was carried out under the condition of 95 % air and 5 % carbon dioxide and at a temperature of 37°C for 96 hours. At 48 hours after the start of the culturing, the culture medium was renewed and the test compound and PTH treated as defined above were added thereto. For examining the effect of the test compound on calcium liberation (bone absorption) from the PTH enhanced bone, a control group, a group using PTH (1 x 10^-8M), and a group using both the test compound (3 x 10^-6M, 1 x 10^-5M, 3 x 10^-5M) and PTH were prepared. The amount of the bone absorption was determined by measuring the amount of calcium accumulated in the culture as collected after 96 hours of culturing. The total calcium concentration in the culture was measured with Calcium C Test Wako. The inhibition rate was calculated using the following equation and the result was shown in terms of 50% inhibitory concentration (IC50). Inhibition of bone absorption from PTH enhanced bone Inhibition rate (%) = [(CP - CD )/(CP - C0 )] x 100 [formula] C0 : The total calcium concentration in the culture containing neither the test compound nor PTH. CP : The total calcium concentration in the culture treated with only PTH. CD : The total calcium concentration in the culture treated . with both the test compound and PTH.

[2] = system: bone density; test: Inhibitory effect on decrease of bone density by ovariectomy; assay type: in vivo; conditions: ovariectomized female SD strain rats, 10 mg/kg orally once a day for 3 weeks, right hindlimb, DEXA (DXA) method
Description: The experiment was carried out using 10-weeks-old female SD strain rats (Charles River Japan Inc.) The ovaries on both sides of the rats were excised under anesthesia using Nembutal. The test compound (10 mg/kg) was dissolved or suspended in distilled water for injection (a product of Otsuka Pharmaceutical Co., Ltd.) and administered orally once a day from the first day after the operation for 3 weeks. For the control group, distilled water for injection alone was administered. The rat was slaughtered by neck dislocation, the right hindlimb was ablated, and then the bone density of the neck was measured according to a DEXA (DXA) method [Japan Clinic, 52 (9), 2329-2334 (1994)] using bone mineral measuring apparatus DCS-600 (a product of Aloka Co., Ltd.) The inhibition rate of decrease in the bone density of the test compound-administered group was calculated from the decrease of the bone density in the test compound-administered group and that in the control group.

In the case of `CN(C)CCn1c(C(=O)N2CCCCC2)c(C(c2ccc(O)cc2)c2ccc(O)cc2)c2ccccc21` [Compound 13, 1-{3-[Bis(4-hydroxyphenyl)methyl]-1-(2-dimethylaminoethyl)indol-2-ylcarbonyl)piperidine methanesulfonate], the IC50 [1] was 15 µM.
`O=C(c1[nH]c2ccccc2c1C(c1ccc(O)cc1)c1ccc(O)cc1)N1CCN(c2ccccc2Cl)CC1` [Compound 8, 1-{3-[Bis(4-hydroxyphenyl)methyl]indol-2-ylcarbonyl}-4-(2-chloroghenyl)piperazine] showed an IC50 [1] of over 30 µM.
With `CC(C)NC(=O)c1c(C(c2ccc(O)cc2)c2ccc(O)cc2)c2ccccc2n1CCN(C)C` [Compound 12, N-Isopropyl-3-[bis(4-hydroxyphenyl)methyl]-1-(2-dimethylaminoethyl)indole-2-carboxamide methanesulfonate] the IC50 [1] was over 30 µM.
`CN(C)CCn1c(C(=O)N2CCN(c3ccccc3Cl)CC2)c(C(c2ccc(O)cc2)c2ccc(O)cc2)c2ccccc21.CS(=O)(=O)O` [Compound 9, 1-{3-[Bis(4-hydroxyphenyl)methyl]-1-(2-dimethylaminoethyl)indol-2-ylcarbonyl}-4-(2-chlorophenyl)piperazine methanesulfonate] was tested, and the IC50 [1] was 11.5 µM and the “Inhibition rate of decrease in bone density (%)” value [2] was 97%.
For `CS(=O)(=O)O.O=C(c1c(C(c2ccc(O)cc2)c2ccc(O)cc2)c2ccccc2n1CCN1CCOCC1)N1CCN(c2ccccc2Cl)CC1` [Compound 10, 1-{3-[Bis(4-hydroxyphenyl)methyl]-1-(2-morpholinoethyl)indol-2-ylcarbonyl}-4-(2-chlorophenyl)-piperazine methanesulfonate], the IC50 [1] was 9.6 µM and the “Inhibition rate of decrease in bone density (%)” value [2] was 33%.
`CCCNC(=O)c1c(C(c2ccc(O)cc2)c2ccc(O)cc2)c2ccccc2n1CCN(C)C` [Compound 11, N-Propyl-3-[bis(4-hydroxyphenyl)methyl]-1-(2-dimethylaminoethyl)indole-2-carboxamide methanesulfonate] showed an IC50 [1] of over 30 µM.
With `CN(C)CCn1c(C(=O)NC2CCCCCC2)c(C(c2ccc(O)cc2)c2ccc(O)cc2)c2ccccc21` [Compound 14, N-Cycloheptyl-3-[bis (4-hydroxyphenyl)methyl]-1-(2-dimethylaminoethyl)indole-2-carboxamide methanesulfonate] the IC50 [1] was 11.9 µM.
